Assay results taken from patent US20260256792A1, “TREATMENT OF CHRONIC SPONTANEOUS URTICARIA BY ADMINISTERING (R)-2-[3-[4-AMINO-3-(2-FLUORO-4-PHENOXY-PHENYL)PYRAZOLO[3,4-D]PYRIMIDIN-1-YL]PIPERIDINE-1-CARBONYL]-4-METHYL-4-[4-(OXETAN-3-YL)PIPERAZIN-1-YL]PENT-2-ENENITRILE” (priority 2023, published 2026).

Test system: moderate-to-severe chronic spontaneous urticaria (CSU)
Experiment: Phase 2 CSU study: hives severity score over 7 days (HSS7)
Type: in vivo, human
Design: key to HSS7 Change from baseline, Median / HSS7, Median / HSS7, Max / HSS7 Change from baseline, Q1 / HSS7 Change from baseline, Q3 / HSS7 Change from baseline, Max: 7-day sum of daily hive scores, each 0 = none to 3 = >50 hives
From the text: The study comprises a 12 week, randomized, double-blind, placebo-controlled, multi-center, dose-ranging efficacy and safety phase, followed by a 40 week open label extension (OLE) phase (see FIG. 1).
The study consists of three phases and an optional OLE phase.
The UAS is a validated PRO measure. The daily UAS is the sum of the daily Hive Severity Score (HSS, ranging from 0=None to 3=more than 50 hives) and the daily Itch Severity Score (ISS, ranging from 0=None to 3=intense), the 2 key urticaria signs and symptoms which are wheals and itch. The daily UAS scores range from 0 to 6 point/day. Daily UAS scores are summed over 7-day period to create the UAS7, ranging from 0 to 42, and are composed of the HSS7 and ISS7 components. […] Patients were to complete the UAS using the e-diary. The e-diary was to be used once daily on the same time of each day recording of participant's answers to the urticaria activity score over 7 days (UAS7) questionnaire. For participants who entered the OLE phase, their answers to the UAS7 questionnaire were also to be collected from Week 20 to Week24 and from Week 48 to Week 52.
The following secondary endpoints were to be analyzed using the same approach as for the primary endpoint: • Change from baseline in UAS7 at Week 4 • Change from baseline in UAS7 at Week 12 (for US and US reference countries) • Change from baseline in ISS7 at Week 12 (except US and US reference countries) • Change from baseline in HSS7 at Week 12

[1] = 400 mg QPM, Week 10, ITT Population
[2] = 400 mg QPM, Week 11, ITT Population
[3] = 400 mg QPM, Week 12, ITT population
[4] = 400 mg QPM, Week 12, Omalizumab-Naïve Population
[5] = 400 mg TID, Omalizumab-Naïve Population, last block under Week 12, double-blind period, WOCF imputation
[6] = 400 mg TID, Week 1, ITT Population
[7] = 400 mg TID, Week 1, Omalizumab-Naïve Population
[8] = 400 mg TID, Week 2, ITT Population
[9] = 400 mg TID, Week 2, Omalizumab-Naïve Population
[10] = 400 mg TID, Week 3, ITT Population
[11] = 400 mg TID, Week 3, Omalizumab-Naïve Population
[12] = 400 mg TID, Week 4, ITT population
[13] = 400 mg TID, Week 4, Omalizumab-Naïve Population
[14] = 400 mg TID, Week 5, ITT Population
[15] = 400 mg TID, Week 5, Omalizumab-Naïve Population
[16] = 400 mg TID, Week 6, ITT Population
[17] = 400 mg TID, Week 6, Omalizumab-Naïve Population
[18] = 400 mg TID, Week 7, ITT Population
[19] = 400 mg TID, Week 7, Omalizumab-Naïve Population
[20] = 400 mg TID, Week 8, ITT population
[21] = 400 mg TID, Week 8, Omalizumab-Naïve Population

Compound: CC(C)(C=C(C#N)C(=O)N1CCC[C@@H](n2nc(-c3ccc(Oc4ccccc4)cc3F)c3c(N)ncnc32)C1)N1CCN(C2COC2)CC1 [rilzabrutinib, (R)-2-[3-[4-amino-3-(2-fluoro-4-phenoxy-phenyl)pyrazolo[3,4-d]pyrimidin-1-yl]piperidine-1-carbonyl]-4-methyl-4-[4-(oxetan-3-yl)piperazin-1-yl]pent-2-enenitrile]
- HSS7 % Change difference for rilzabrutinib vs.placebo LS Mean (95% CI) [1]: −6.70 %
- HSS7 % Change from baseline LS Mean (SE) [1]: −34.70 (6.79) %
- HSS7 Change difference for rilzabrutinib vs.placebo LS Mean (95% CI) [1]: −0.56 (−3.19, 2.07)
- HSS7 Change from baseline LS Mean (SE) [1]: −5.16 (0.98)
- HSS7 Postbaseline Mean (SD) [1]: 9.82 (5.85)
- HSS7 Postbaseline Mean (SD) (400 mg QPM, Week 10, Omalizumab-Naïve Population): 9.88 (5.93)
- HSS7 Postbaseline Mean (SD) (400 mg QPM, Week 10, Omalizumab-Naïve Population with Outlier Removed from Analysis): 9.88 (5.93)
- HSS7 % Change difference for rilzabrutinib vs.placebo LS Mean (95% CI) [2]: −8.01 %
- HSS7 % Change from baseline LS Mean (SE) [2]: −34.56 (7.07) %
- HSS7 Change difference for rilzabrutinib vs.placebo LS Mean (95% CI) [2]: −0.43 (−3.08, 2.22)
- HSS7 Change from baseline LS Mean (SE) [2]: −4.97 (0.99)
- HSS7 Postbaseline Mean (SD) [2]: 10.15 (6.09)
- HSS7 Postbaseline Mean (SD) (400 mg QPM, Week 11, Omalizumab-Naïve Population): 10.18 (6.18)
- HSS7 Postbaseline Mean (SD) (400 mg QPM, Week 11, Omalizumab-Naïve Population with Outlier Removed from Analysis): 10.18 (6.18)
- HSS7 % Change difference for rilzabrutinib vs.placebo LS Mean (95% CI) [3]: −5.74 %
- HSS7 % Change from baseline LS Mean (SE) [3]: −33.48 (7.28) %
- HSS7 Change difference for rilzabrutinib vs.placebo LS Mean (95% CI) [3]: 0.14 (−2.62, 2.91)
- HSS7 Change from baseline LS Mean (SE) [3]: −4.75 (1.03)
- HSS7 Change difference for rilzabrutinib vs.placebo LS Mean (95% CI) [4]: −0.09 (−2.92, 2.75)
- HSS7 Change from baseline LS Mean (SE) [4]: −4.49 (1.04)
- median reduction in HSS7 at Week 12 (400 mg TID, ITT population): −8.31 points
- HSS7, Max [5]: 16.0
- HSS7, Min [5]: 2.0
- HSS7 Change from baseline, Max [5]: 0.0
- HSS7 Change from baseline, Mean (SD) [5]: −5.20 (3.11)
- HSS7 Change from baseline, Median [5]: −6.00
- HSS7 Change from baseline, Min [5]: −8.0
- HSS7 Change from baseline, Q1 [5]: −7.00
- HSS7 Change from baseline, Q3 [5]: −5.00
- HSS7 Percent change from baseline, Max [5]: 0.0%
- HSS7 Percent change from baseline, Mean (SD) [5]: −38.89 (26.61) percent
- HSS7 Percent change from baseline, Median [5]: −44.44%
- HSS7 Percent change from baseline, Min [5]: −71.4%
- HSS7 Percent change from baseline, Q1 [5]: −50.00%
- HSS7 Percent change from baseline, Q3 [5]: −28.57%
- HSS7 % Change difference for rilzabrutinib vs.placebo LS Mean (95% CI) [6]: −30.65 %
- HSS7 % Change from baseline LS Mean (SE) [6]: −39.34 (5.49) %
- HSS7 Change from baseline LS Mean (SE) [6]: −6.09 (0.74)
- HSS7 Postbaseline Mean (SD) [6]: 7.76 (4.83)
- HSS7 % Change difference for rilzabrutinib vs.placebo LS Mean (95% CI) [7]: −27.41 %
- HSS7 % Change from baseline LS Mean (SE) [7]: −34.85 (6.00) %
- HSS7 Change from baseline LS Mean (SE) [7]: −5.32 (0.79)
- HSS7 Postbaseline Mean (SD) [7]: 8.26 (4.91)
- HSS7 Postbaseline Mean (SD) (400 mg TID, Week 1, Omalizumab-Naïve Population with Outlier Removed from Analysis): 8.50 (4.76)
- HSS7 % Change difference for rilzabrutinib vs.placebo LS Mean (95% CI) [8]: −30.93 %
- HSS7 % Change from baseline LS Mean (SE) [8]: −47.49 (5.64) %
- HSS7 Change difference for rilzabrutinib vs.placebo LS Mean (95% CI) [8]: −4.24 (−6.33, −2.15)
- HSS7 Change from baseline LS Mean (SE) [8]: −7.16 (0.77)
- HSS7 Postbaseline Mean (SD) [8]: 6.61 (5.06)
- HSS7 % Change difference for rilzabrutinib vs.placebo LS Mean (95% CI) [9]: −27.36 %
- HSS7 % Change from baseline LS Mean (SE) [9]: −42.63 (6.08) %
- HSS7 Postbaseline Mean (SD) [9]: 7.25 (5.05)
- HSS7 Postbaseline Mean (SD) (400 mg TID, Week 2, Omalizumab-Naïve Population with Outlier Removed from Analysis): 7.44 (5.01)
- HSS7 % Change difference for rilzabrutinib vs.placebo LS Mean (95% CI) [10]: −29.56 %
- HSS7 % Change from baseline LS Mean (SE) [10]: −48.71 (5.82) %
- HSS7 Change difference for rilzabrutinib vs.placebo LS Mean (95% CI) [10]: −3.79 (−5.97, −1.61)
- HSS7 Change from baseline LS Mean (SE) [10]: −7.29 (0.81)
- HSS7 Postbaseline Mean (SD) [10]: 6.49 (4.72)
- HSS7 % Change difference for rilzabrutinib vs.placebo LS Mean (95% CI) [11]: −27.37 %
- HSS7 % Change from baseline LS Mean (SE) [11]: −45.07 (6.36) %
- HSS7 Postbaseline Mean (SD) [11]: 7.03 (4.82)
- HSS7 Postbaseline Mean (SD) (400 mg TID, Week 3, Omalizumab-Naïve Population with Outlier Removed from Analysis): 7.03 (4.89)
- HSS7 % Change difference for rilzabrutinib vs.placebo LS Mean (95% CI) [12]: −29.20 %
- HSS7 % Change from baseline LS Mean (SE) [12]: −47.90 (5.95) %
- HSS7 Change difference for rilzabrutinib vs.placebo LS Mean (95% CI) [12]: −3.53 (−5.74, −1.31)
- HSS7 Change from baseline LS Mean (SE) [12]: −6.98 (0.82)
- HSS7 Postbaseline Mean (SD) [12]: 6.39 (4.92)
- HSS7 % Change difference for rilzabrutinib vs.placebo LS Mean (95% CI) [13]: −28.82 %
- HSS7 % Change from baseline LS Mean (SE) [13]: −44.69 (6.50) %
- HSS7 Postbaseline Mean (SD) [13]: 6.85 (4.96)
- HSS7 Postbaseline Mean (SD) (400 mg TID, Week 4, Omalizumab-Naïve Population with Outlier Removed from Analysis): 6.85 (4.96)
- HSS7 % Change difference for rilzabrutinib vs.placebo LS Mean (95% CI) [14]: −23.13 %
- HSS7 % Change from baseline LS Mean (SE) [14]: −52.29 (5.80) %
- HSS7 Change difference for rilzabrutinib vs.placebo LS Mean (95% CI) [14]: −3.09 (−5.36, −0.81)
- HSS7 Change from baseline LS Mean (SE) [14]: −7.73 (0.84)
- HSS7 Postbaseline Mean (SD) [14]: 6.02 (5.11)
- HSS7 % Change difference for rilzabrutinib vs.placebo LS Mean (95% CI) [15]: −18.86 %
- HSS7 % Change from baseline LS Mean (SE) [15]: −49.42 (6.23) %
- HSS7 Postbaseline Mean (SD) [15]: 6.49 (5.14)
- HSS7 Postbaseline Mean (SD) (400 mg TID, Week 5, Omalizumab-Naïve Population with Outlier Removed from Analysis): 6.49 (5.14)
- HSS7 % Change difference for rilzabrutinib vs.placebo LS Mean (95% CI) [16]: −28.20 %
- HSS7 % Change from baseline LS Mean (SE) [16]: −52.27 (6.61) %
- HSS7 Change difference for rilzabrutinib vs.placebo LS Mean (95% CI) [16]: −3.48 (−5.94, −1.02)
- HSS7 Change from baseline LS Mean (SE) [16]: −7.75 (0.91)
- HSS7 Postbaseline Mean (SD) [16]: 6.14 (5.55)
- HSS7 % Change difference for rilzabrutinib vs.placebo LS Mean (95% CI) [17]: −24.11 %
- HSS7 % Change from baseline LS Mean (SE) [17]: −48.15 (7.17) %
- HSS7 Postbaseline Mean (SD) [17]: 6.78 (5.55)
- HSS7 Postbaseline Mean (SD) (400 mg TID, Week 6, Omalizumab-Naïve Population with Outlier Removed from Analysis): 6.78 (5.55)
- HSS7 % Change difference for rilzabrutinib vs.placebo LS Mean (95% CI) [18]: −27.16 %
- HSS7 % Change from baseline LS Mean (SE) [18]: −51.12 (6.01) %
- HSS7 Change difference for rilzabrutinib vs.placebo LS Mean (95% CI) [18]: −3.58 (−5.87, −1.29)
- HSS7 Change from baseline LS Mean (SE) [18]: −7.66 (0.86)
- HSS7 Postbaseline Mean (SD) [18]: 6.18 (4.44)
- HSS7 % Change difference for rilzabrutinib vs.placebo LS Mean (95% CI) [19]: −24.63 %
- HSS7 Postbaseline Mean (SD) [19]: 6.40 (4.54)
- HSS7 Postbaseline Mean (SD) (400 mg TID, Week 7, Omalizumab-Naïve Population with Outlier Removed from Analysis): 6.40 (4.54)
- HSS7 % Change difference for rilzabrutinib vs.placebo LS Mean (95% CI) [20]: −25.27 %
- HSS7 % Change from baseline LS Mean (SE) [20]: −54.34 (6.35) %
- HSS7 Change difference for rilzabrutinib vs.placebo LS Mean (95% CI) [20]: −3.06 (−5.54, −0.58)
- HSS7 Change from baseline LS Mean (SE) [20]: −7.81 (0.92)
- HSS7 Postbaseline Mean (SD) [20]: 5.60 (4.81)
- HSS7 % Change difference for rilzabrutinib vs.placebo LS Mean (95% CI) [21]: −22.36 %
- HSS7 % Change from baseline LS Mean (SE) [21]: −50.37 (7.07) %
